From patent US9402846B2, “Combination of inhibitor of B-Raf and inhibitor of AKT in the treatment of cancer” (Novartis AG, priority 2009, dated 2016)

Columns and labels:
Assay type in all cases: cell-based
[1] = tested on: seven Compound A resistant clones derived from the A375PF11 melanoma cell line; assay: Cell growth inhibition assay (Cell Titer Glo, 3 days), summary over clones; conditions: Homo sapiens, A375P-F11; seven Compound A resistant clones (12R8-3, 12R8-1, 12R5-3, 16R5-2, 16R6-3, 16R6-4, 12R5-1); single agent
Description: (§1) Human colon tumor lines, Colo205, DLD1, HCC2998, HCT15, HCT8, HT29, KM-12, LS1034, LS174T, NCI-H508, RKO, SW1417, SW1463, SW480, SW837 and T84, and human melanoma line A375 were from ATCC. A375PF11 was derived from A375, 12R5-1, 12R5-3, 12R8-1, 12R8-3, 16R5-2, 16R6-3 and 16R6-4 are single cell clones derived from mixed populations of A375PF11 cells that were selected to grow in Compound A to concentrations of 1200 and 1600 nM. All lines were cultured in RPMI 1640 medium containing 10% fetal bovine serum (FBS).
All cells were cultured for a minimum of 72 hours prior to cell plating. […] ATP levels were determined by adding Cell Titer Glo® (Promega) according to the manufacturer's protocol. Briefly, Cell Titer Glo® was added each plate, incubated for 30 minutes then luminescent signal was read on the SpectraMax L plate reader with a 0.5 sec integration time.
(§2) Inhibition of cell growth was estimated after treatment with compound or combination of compounds for three days and comparing the signal to cells treated with vehicle (DMSO). Cell growth was calculated relative to vehicle (DMSO) treated control wells.
Combination effects on potency were evaluated using Combination Index (CI) which was calculated with the back-interpolated IC50 values and the mutually non-exclusive equation derived by Chou and Talalay (1): CI=Da/IC50(a)+Db/IC50(b)+(Da×Db)/(IC50(a)×IC50(b)) […]

[2] = tested on: four colon cell lines with BRAF V600E mutation; assay: Cell growth inhibition assay (Cell Titer Glo, 3 days), summary over lines; conditions: Homo sapiens; span over the four colon cell lines with BRAF V600E mutation; single agent
Description: Human colon tumor lines, Colo205, DLD1, HCC2998, HCT15, HCT8, HT29, KM-12, LS1034, LS174T, NCI-H508, RKO, SW1417, SW1463, SW480, SW837 and T84, and human melanoma line A375 were from ATCC.
All cells were cultured for a minimum of 72 hours prior to cell plating. […] Cells were incubated in the presence of compounds for 3 days. ATP levels were determined by adding Cell Titer Glo® (Promega) according to the manufacturer's protocol. Briefly, Cell Titer Glo® was added each plate, incubated for 30 minutes then luminescent signal was read on the SpectraMax L plate reader with a 0.5 sec integration time.
as §2
(§3) Combination effects on potency were evaluated using Combination Index (CI) which was calculated with the back-interpolated IC50 values and the mutually non-exclusive equation derived by Chou and Talalay (1): CI=Da/IC50(a)+Db/IC50(b)+(Da×Db)/(IC50(a)×IC50(b))
(§4) In general, a CI value <0.9, between 0.9 and 1.1, or >1.1 indicates synergy, additivity and antagonism, respectively. In general, the smaller the CI number, the greater is the strength of synergy.
(§5) EOHSA values are defined as increases in improvement (here, in ‘percentage points’ (ppts) difference) produced by the combination over the best single agent at its component dose level for the combination. For single agent and combination treatments, cells were exposed to compounds at a fixed-dose-ratio, and dose response curves were fit to the experimental data and analyzed using regression models. At specified total dose levels of IC50 along the dose response curve, the dose combination (corresponding to IC50) was determined for making EOHSA statistical inferences.

16R6-3 = assay: Cell growth inhibition assay (Cell Titer Glo, 3 days); conditions: Homo sapiens; 16R6-3, melanoma, Compound A resistant clone; BRAF_V600E, KRAS WT; mean ± std; read-out: IC50 Single Agent
Description: as §1
(§6) All cells were cultured for a minimum of 72 hours prior to cell plating. Cells were assayed in a 96-well tissue culture plate (NUNC 136102) of RPMI medium containing 10% FBS for all cells at 1,000 cells per well. Approximately 24 hours after plating, cells were exposed to ten, three-fold serial dilutions of compound or the combination of the two agents at a constant molar to molar ratio of 1:10 Compound A to Compound B in RPMI media containing 10% FBS. Cells were incubated in the presence of compounds for 3 days. ATP levels were determined by adding Cell Titer Glo® (Promega) according to the manufacturer's protocol. Briefly, Cell Titer Glo® was added each plate, incubated for 30 minutes then luminescent signal was read on the SpectraMax L plate reader with a 0.5 sec integration time.
(§7) Inhibition of cell growth was estimated after treatment with compound or combination of compounds for three days and comparing the signal to cells treated with vehicle (DMSO). Cell growth was calculated relative to vehicle (DMSO) treated control wells. […]

LS174T = assay: as above; conditions: Homo sapiens, colon, BRAF WT, KRAS G12D, PIK3CA H1047R, mean ± std, read-out: IC50 Single Agent
Description: as §1, §6, §7

HCT8 = assay: as above; conditions: Homo sapiens, HCT-8; HCT8, colon; BRAF WT, KRAS G13D, PIK3CA E545K; mean ± std; read-out: IC50 Single Agent
Description: as §1, §6, §7

LS1034 = assay: as above; conditions: Homo sapiens, LS-1034; LS1034, colon; BRAF WT, KRAS A146T, PIK3CA WT; mean ± std; read-out: IC50 Single Agent
Description: as §1, §6, §7

T84 = assay: as above; conditions: Homo sapiens; T84, colon; BRAF WT, KRAS G13D, PIK3CA E542K; mean ± std; read-out: IC50 Single Agent
Description: as §1, §6, §7

12R5-3 = assay: as above; conditions: Homo sapiens; 12R5-3, melanoma, Compound A resistant clone; BRAF_V600E, KRAS WT; mean ± std; read-out: IC50 Single Agent
Description: as §1, §6, §7

A375PF11 = assay: as above; conditions: Homo sapiens, A375P-F11, melanoma, BRAF_V600E, KRAS WT, mean ± std, read-out: IC50 Single Agent
Description: as §1, §6, §7

12R8-3 = assay: as above; conditions: Homo sapiens; 12R8-3, melanoma, Compound A resistant clone; BRAF_V600E, KRAS WT; mean ± std; read-out: IC50 Single Agent
Description: as §1, §6, §7

SW480 = assay: as above; conditions: Homo sapiens; SW480, colon; BRAF WT, KRAS G12C, PIK3CA WT; mean ± std; read-out: IC50 Single Agent
Description: as §1, §6, §7

DLD1 = assay: as above; conditions: Homo sapiens, DLD-1; DLD1, colon; BRAF WT, KRAS G13D, PIK3CA E545K, D549N; mean ± std; read-out: IC50 Single Agent
Description: as §1, §6, §7

HCT15 = assay: as above; conditions: Homo sapiens, HCT-15; HCT15, colon; BRAF WT, KRAS G13D, PIK3CA D549N, E545K; mean ± std; read-out: IC50 Single Agent
Description: as §1, §6, §7

SW1463 = assay: as above; conditions: Homo sapiens; SW1463, colon; BRAF WT, KRAS G12C, PIK3CA WT; mean ± std; read-out: IC50 Single Agent
Description: as §1, §6, §7

NCI-H508 = assay: as above; conditions: Homo sapiens, NCl-H508, colon, BRAF G596R, KRAS WT, PIK3CA E545K, mean ± std, read-out: IC50 Single Agent
Description: as §1, §6, §7

RKO = assay: as above; conditions: Homo sapiens, colon, BRAF V600E, KRAS WT, PIK3CA H1047R, mean ± std, read-out: IC50 Single Agent
Description: as §1, §6, §7

SW837 = assay: as above; conditions: Homo sapiens; SW837, colon; BRAF WT, KRAS G12C, PIK3CA WT; mean ± std; read-out: IC50 Single Agent
Description: as §1, §6, §7

16R6-4 = assay: as above; conditions: Homo sapiens; 16R6-4, melanoma, Compound A resistant clone; BRAF_V600E, KRAS WT; mean ± std; read-out: IC50 Single Agent
Description: as §1, §6, §7

Colo205 = assay: as above; conditions: Homo sapiens, COLO 205; Colo205, colon; BRAF V600E, KRAS WT, PIK3CA WT; mean ± std; read-out: IC50 Single Agent
Description: as §1, §6, §7

KM-12 = assay: as above; conditions: Homo sapiens, KM12; KM-12, colon; BRAF WT, KRAS WT, PIK3CA WT; mean ± std; read-out: IC50 Single Agent
Description: as §1, §6, §2, §3, §4
as §5, with “The combination effects on the response scale were quantified by Excess Over Highest Single Agent (EOHSA) based on the concept of nonlinear blending as described in detail by Peterson and Novick (2007) and Peterson (2010) [(2;3) [Peterson and Novick, 2007; Peterson, 2010]. EOHSA values” for “EOHSA values”

12R5-1 = assay: as above; conditions: Homo sapiens; 12R5-1, melanoma, Compound A resistant clone; BRAF_V600E, KRAS WT; mean ± std; read-out: IC50 Single Agent
Description: as §1, §6, §2, §3, §4
as §5, with “The combination effects on the response scale were quantified by Excess Over Highest Single Agent (EOHSA) based on the concept of nonlinear blending as described in detail by Peterson and Novick (2007) and Peterson (2010) [(2;3) [Peterson and Novick, 2007; Peterson, 2010]. EOHSA values” for “EOHSA values”

16R5-2 = assay: as above; conditions: Homo sapiens; 16R5-2, melanoma, Compound A resistant clone; BRAF_V600E, KRAS WT; mean ± std; read-out: IC50 Single Agent
Description: as §1, §6, §2, §3, §4
as §5, with “The combination effects on the response scale were quantified by Excess Over Highest Single Agent (EOHSA) based on the concept of nonlinear blending as described in detail by Peterson and Novick (2007) and Peterson (2010) [(2;3) [Peterson and Novick, 2007; Peterson, 2010]. EOHSA values” for “EOHSA values”

12R8-1 = assay: as above; conditions: Homo sapiens; 12R8-1, melanoma, Compound A resistant clone; BRAF_V600E, KRAS WT; mean ± std; read-out: IC50 Single Agent
Description: as §1, §6, §2, §3, §4
as §5, with “The combination effects on the response scale were quantified by Excess Over Highest Single Agent (EOHSA) based on the concept of nonlinear blending as described in detail by Peterson and Novick (2007) and Peterson (2010) [(2;3) [Peterson and Novick, 2007; Peterson, 2010]. EOHSA values” for “EOHSA values”

HT29 = assay: as above; conditions: Homo sapiens, HT-29; HT29, colon; BRAF V600E, KRAS WT, PIK3CA P449T; mean ± std; read-out: IC50 Single Agent
Description: as §1, §6, §2, §3, §4
as §5, with “The combination effects on the response scale were quantified by Excess Over Highest Single Agent (EOHSA) based on the concept of nonlinear blending as described in detail by Peterson and Novick (2007) and Peterson (2010) [(2;3) [Peterson and Novick, 2007; Peterson, 2010]. EOHSA values” for “EOHSA values”

SW1417 = assay: as above; conditions: Homo sapiens; SW1417, colon; BRAF V600E, KRAS WT, PIK3CA WT; mean ± std; read-out: IC50 Single Agent
Description: as §1, §6, §2, §3, §4
as §5, with “The combination effects on the response scale were quantified by Excess Over Highest Single Agent (EOHSA) based on the concept of nonlinear blending as described in detail by Peterson and Novick (2007) and Peterson (2010) [(2;3) [Peterson and Novick, 2007; Peterson, 2010]. EOHSA values” for “EOHSA values”

IC50 [1]: ≥ 7 µM | IC50 (HCT8): 527 ± 36 nM | IC50 (A375PF11): > 10 µM | IC50 (SW480): 5.62 ± 1.85 µM | IC50 (DLD1): > 10 µM | IC50 (HCT15): 4.21 ± 0.834 µM | IC50 (SW1463): 5.23 ± 7.4 µM | IC50 (NCI-H508): 234 ± 247 nM | IC50 (SW837): > 10 µM | IC50 (Colo205): 908 ± 605 nM | IC50 (HT29): 503 ± 73 nM | IC50 (SW1417): 2590 ± 1760 nM
Compound: Cn1ncc(Cl)c1-c1cc(C(=O)N[C@H](CN)Cc2ccc(F)c(F)c2)oc1Cl [Compound B, N-{(1S)-2-amino-1-[(3,4-difluorophenyl)methyl]ethyl}-5-chloro-4-(4-chloro-1-methyl-1H-pyrazol-5-yl)-2-furancarboxamide]
IC50 [2]: 290 to 2590 nM | IC50 (16R6-3): > 10 µM | IC50 (LS174T): 3.75 ± 0.945 µM | IC50 (LS1034): 6.39 ± 3.55 µM | IC50 (T84): > 10 µM | IC50 (12R5-3): > 10 µM | IC50 (12R8-3): > 10 µM | IC50 (RKO): 290 ± 70 nM | IC50 (16R6-4): > 10 µM | IC50 (KM-12): 1410 ± 961 nM | IC50 (12R5-1): > 10 µM | IC50 (16R5-2): 7.05 ± 1.33 µM | IC50 (12R8-1): > 10 µM
